This passage reports EC50, IC50 and Ki results from patent US9676712B2, “Lactam compounds as EP4 receptor-selective agonists for use in the treatment of EP4-mediated diseases and conditions” (Cayman Chemical Company, Inc., priority 2013, dated 2017).

For assay [1], the target named is T1, EP4 receptor (Rattus norvegicus (Rat), UniProt P43114). The assay is described as follows: STEP plate cell functional assay, SEAP activity, EP4. It counts as cell-based. The conditions noted are these: SEAP reporter, 6-8 hours stimulation. From the text:
(§1) Functional Cellular Assays (STEP Plate Format)
(§2) Procedure of SEAP Activity Assay for EP2/EP4 Agonist
(§3) 3. […] In addition each concentration had triplicates.
(§4) 4. […] Cover the plate with the lid.

In assay [2] the target is EP2 receptor (Rattus norvegicus (Rat), UniProt Q62928). The assay is described as follows: STEP plate cell functional assay, SEAP activity, EP2. Type of assay: cell-based. As to conditions: SEAP reporter, 6-8 hours stimulation.
EP2 receptor, sequence (Q62928 whole entry): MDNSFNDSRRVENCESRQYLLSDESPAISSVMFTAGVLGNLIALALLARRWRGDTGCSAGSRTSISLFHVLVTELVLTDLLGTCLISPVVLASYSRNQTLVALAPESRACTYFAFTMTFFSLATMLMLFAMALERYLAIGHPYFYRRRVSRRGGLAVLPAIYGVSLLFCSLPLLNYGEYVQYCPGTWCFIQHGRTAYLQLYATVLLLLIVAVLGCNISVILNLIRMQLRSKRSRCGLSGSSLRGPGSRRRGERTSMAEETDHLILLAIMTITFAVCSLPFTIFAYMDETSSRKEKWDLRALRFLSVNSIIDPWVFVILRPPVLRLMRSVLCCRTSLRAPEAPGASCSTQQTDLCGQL
From the text: as §1, §2, §3, §4

The target of assay [3] is T1, EP4 receptor. The assay is described as follows: STEP plate cell functional assay, cAMP level (ELISA), EP4. Type of assay: cell-based. As to conditions: 30 minutes, 500 μM IBMX.
From the text: as §1
Procedure of cAMP Assay for EP2/EP4 Agonist
as §3
6. Aspirate the supernatant.
(cAMP levels reflect the balance of adenylyl cyclase and phosphodiesterase activity.)

Assay [4] addresses Human Prostanoid EP4 Receptor (Homo sapiens (Human), UniProt P35408). Nature of the assay: Radioligand binding assay, agonist site of the human prostanoid EP4 receptor in transfected HEK-293 cells ([3H]PGE2). As for the experimental part:
Radioligand Binding Assay for the Evaluation of the Affinity of Compounds for the Agonist Site of the Human Prostanoid EP4 Receptor in Transfected HEK-293 Cells
Following incubation, the samples are filtered rapidly under vacuum through glass fiber filters (GF/B, Packard) presoaked with 0.3% PEI and rinsed several times with ice-cold 50 mM Tris-HCl using a 96-sample cell harvester (Unifilter, Packard). The filters are dried then counted for radioactivity in a scintillation counter (Topcount, Packard) using a scintillation cocktail (Microscint 0, Packard).

T1 sequence (P43114 whole entry): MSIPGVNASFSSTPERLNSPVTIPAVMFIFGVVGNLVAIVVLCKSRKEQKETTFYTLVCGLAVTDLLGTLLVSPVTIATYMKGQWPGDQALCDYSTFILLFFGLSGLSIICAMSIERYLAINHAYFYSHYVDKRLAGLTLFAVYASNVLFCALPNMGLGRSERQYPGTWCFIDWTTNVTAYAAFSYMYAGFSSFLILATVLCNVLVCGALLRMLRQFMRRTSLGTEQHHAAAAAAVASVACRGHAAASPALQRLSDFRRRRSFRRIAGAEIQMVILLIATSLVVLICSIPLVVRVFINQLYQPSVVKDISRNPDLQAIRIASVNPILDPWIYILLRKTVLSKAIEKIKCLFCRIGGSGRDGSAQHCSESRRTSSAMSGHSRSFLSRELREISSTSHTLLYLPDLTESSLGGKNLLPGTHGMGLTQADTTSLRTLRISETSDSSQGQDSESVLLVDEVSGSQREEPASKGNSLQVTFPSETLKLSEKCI
Human Prostanoid EP4 Receptor, sequence (P35408 whole entry): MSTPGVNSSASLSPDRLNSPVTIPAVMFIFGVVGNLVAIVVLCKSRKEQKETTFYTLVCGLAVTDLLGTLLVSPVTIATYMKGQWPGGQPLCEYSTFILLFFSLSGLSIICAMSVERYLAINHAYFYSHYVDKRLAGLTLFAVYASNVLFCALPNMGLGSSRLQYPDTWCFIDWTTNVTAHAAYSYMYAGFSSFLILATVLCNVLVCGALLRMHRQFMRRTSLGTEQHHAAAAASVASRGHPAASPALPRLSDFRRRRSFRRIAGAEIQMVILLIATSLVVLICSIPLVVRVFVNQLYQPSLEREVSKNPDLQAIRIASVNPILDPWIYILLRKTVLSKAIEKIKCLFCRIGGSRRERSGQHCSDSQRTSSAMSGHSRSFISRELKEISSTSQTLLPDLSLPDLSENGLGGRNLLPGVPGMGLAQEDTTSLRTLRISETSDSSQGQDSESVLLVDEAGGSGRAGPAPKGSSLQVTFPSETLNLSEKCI

Turning to `CC(CCCc1ccccc1)[C@H](O)/C=C/[C@H]1CCC(=O)N1CC#Cc1ccc(C(=O)O)s1` (mixture of isomers) [Example 3C, 5-(3-((2R)-2-((3S,E)-3-hydroxy-4-methyl-7-phenylhept-1-en-1-yl)-5-oxopyrrolidin-1-yl)prop-1-yn-1-yl)thiophene-2-carboxylic acid], the EC50 in assay [1] was 0.019 nM; in assay [2], above 10000 nM.
On the same counts, the results for `CC(CCCc1ccccc1)[C@@H](O)/C=C/[C@H]1CCC(=O)N1CC#Cc1ccc(C(=O)O)s1` (mixture of isomers) [Example 3D, 5-(3-((2R)-2-((3R,E)-3-hydroxy-4-methyl-7-phenylhept-1-en-1-yl)-5-oxopyrrolidin-1-yl)prop-1-yn-1-yl)thiophene-2-carboxylic acid] are 31.5 nM and above 10000 nM.
Regarding `O=C(O)CCCCCCN1C(=O)CC[C@@H]1/C=C/[C@@H](O)CCCCc1ccccc1` [Example 1C, 7-((R)-2-((S,E)-3-hydroxy-7-phenylhept-1-en-1-yl)-5-oxopyrrolidin-1-yl)heptanoic acid], the EC50 in assay [3] is 1.37 nM; in assay [1], 0.014 ± 0.02 nM; in assay [2] it was above 1000 nM. Further, in assay [4] (read-out: hEP4 receptor binding IC50), the IC50 was 10 nM. For the same molecule, the Ki in assay [4] (read-out: hEP4 receptor binding Ki) was 3.8 nM.
Take `CC(CCCc1ccccc1)[C@H](O)/C=C/[C@H]1CCC(=O)N1CCCCCCC(=O)O` (mixture of isomers) [Example 2C, 7-((2R)-2-((3S,E)-3-hydroxy-4-methyl-7-phenylhept-1-en-1-yl)-5-oxopyrrolidin-1-yl)heptanoic acid]: the EC50 in assay [3] was 0.007 nM; in assay [1] it was 0.001 ± 0.001 nM; in assay [2], above 1000 nM.
As for `CC(CCCc1ccccc1)[C@H](O)/C=C/[C@H]1CCC(=O)N1CCCc1ccc(C(=O)O)s1` (mixture of isomers) [Example 4C, 5-(3-((2R)-2-((3S,E)-3-hydroxy-4-methyl-7-phenylhept-1-en-1-yl)-5-oxopyrrolidin-1-yl)propyl)thiophene-2-carboxylic acid], the figures for the EC50 in assay [1] and in assay [2] were 0.003 nM and 2280 nM, respectively.
In turn, `CC(CCCc1ccccc1)[C@@H](O)/C=C/[C@H]1CCC(=O)N1CCCc1ccc(C(=O)O)s1` (mixture of isomers) [Example 4D, 5-(3-((2R)-2-((3R,E)-3-hydroxy-4-methyl-7-phenylhept-1-en-1-yl)-5-oxopyrrolidin-1-yl)propyl)thiophene-2-carboxylic acid] registered a 50% effective concentration (EC50) in assay [2] above 10000 nM.

The EC50 is the concentration that produces a half-maximal response. High values mean lower potency in that assay, low ones higher potency in that assay. One may read the IC50 as the midpoint of a concentration-inhibition curve. For orientation: Ki means the equilibrium dissociation constant of an inhibitor or competing ligand from its target.
